Assay results reported in patent publication US20170355691A1, “PESTICIDALLY ACTIVE HETEROCYCLIC DERIVATIVES WITH SULPHUR CONTAINING SUBSTITUENTS” (Syngenta Participations AG, priority 2015, published 2017).

Assays:
[1] = test system: Spodoptera littoralis (Egyptian cotton leaf worm); test: Activity against Spodoptera littoralis, cotton leaf disc spray (Example B1); assay type: in vivo; conditions: foliar, 72 h, L1 larvae on cotton leaf discs, 3 days after infestation, read-out: control in at least one of the three categories (mortality, anti-feedancy or growth inhibition)
Method: Example B1: Activity Against Spodoptera littoralis (Egyptian Cotton Leaf Worm)
Cotton leaf discs were placed on agar in 24-well microtiter plates and sprayed with aqueous test solutions prepared from 10′000 ppm DMSO stock solutions. After drying the leaf discs were infested with five L1 larvae. The samples were assessed for mortality, anti-feedant effect, and growth inhibition in comparison to untreated samples 3 days after infestation. Control of Spodoptera littoralis by a test sample is when at least one of mortality, anti-feedant effect, and growth inhibition is higher than the untreated sample. The following compounds gave an effect of at least 80% control in at least one of the three categories (mortality, anti-feedancy or growth inhibition) at an application rate of 200 ppm: P1.2, P1.3, P1.6, P1.7, P1.8, P1.9, P1.10, P1.12, P1.13, P1.14, P1.15, P1.16, P1.17 and P1.18.

[2] = test system: Plutella xylostella (diamond back moth); test: Activity against Plutella xylostella, artificial diet (Example B2); assay type: in vivo; conditions: 120 h, L2 larvae on artificial diet, 5 days after infestation, read-out: effect in at least one of the two categories (mortality or growth inhibition)
Method: Example B2: Activity Against Plutella xylostella (Diamond Back Moth)
24-well microtiter plates with artificial diet were treated with aqueous test solutions prepared from 10′000 ppm DMSO stock solutions by pipetting. After drying, the plates were infested with L2 larvae (10 to 15 per well). The samples were assessed for mortality and growth inhibition in comparison to untreated samples 5 days after infestation. The following compounds gave an effect of at least 80% in at least one of the two categories (mortality or growth inhibition) at an application rate of 200 ppm: P1.3, P1.6, P1.7, P1.8, P1.9, P1.13, P1.14, P1.15, P1.16, P1.17 and P1.18.

[3] = test system: Diabrotica balteata (corn root worm); test: Activity against Diabrotica balteata, maize sprouts (Example B3); assay type: in vivo; conditions: 96 h, L2 larvae on maize sprouts, 4 days after infestation, read-out: effect in at least one of the two categories (mortality or growth inhibition)
Method: Example B3: Activity Against Diabrotica balteata (Corn Root Worm)
Maize sprouts, placed on an agar layer in 24-well microtiter plates were treated with aqueous test solutions prepared from 10′000 ppm DMSO stock solutions by spraying. After drying, the plates were infested with L2 larvae (6 to 10 per well). The samples were assessed for mortality and growth inhibition in comparison to untreated samples 4 days after infestation. The following compounds gave an effect of at least 80% in at least one of the two categories (mortality or growth inhibition) at an application rate of 200 ppm: P1.1, P1.2, P1.6, P1.7, P1.8, P1.9, P1.10, P1.13, P1.14, P1.15, P1.16, P1.17 and P1.18.

[4] = test system: Myzus persicae (green peach aphid); test: Activity against Myzus persicae, sunflower leaf disc spray (Example B5); assay type: in vivo; conditions: foliar, 144 h, mixed-age aphid population on sunflower leaf discs, 6 days after infestation
Method: Example B5: Activity Against Myzus persicae (Green Peach Aphid)
Sunflower leaf discs were placed on agar in a 24-well microtiter plate and sprayed with aqueous test solutions prepared from 10′000 ppm DMSO stock solutions. After drying, the leaf discs were infested with an aphid population of mixed ages. The samples were assessed for mortality 6 days after infestation.

[5] = test system: Bemisia tabaci (cotton white fly); test: Activity against Bemisia tabaci, cotton leaf disc spray (Example B6); assay type: in vivo; conditions: foliar, 144 h, adult white flies on cotton leaf discs, 6 days after incubation
Method: Example B6: Activity Against Bemisia tabaci (Cotton White Fly)
Cotton leaf discs were placed on agar in 24-well microtiter plates and sprayed with aqueous test solutions prepared from 10′000 ppm DMSO stock solutions. After drying the leaf discs were infested with adult white flies. The samples were checked for mortality 6 days after incubation.

[6] = test system: Euschistus heros (neotropical brown stink bug); test: Activity against Euschistus heros, soybean leaf spray (Example B7); assay type: in vivo; conditions: 120 h, N-2 nymphs on soybean leaf, 5 days after infestation
Method: Example B7: Activity Against Euschistus heros (Neotropical Brown Stink Bug)
Soybean leaf on agar in 24-well microtiter plates were sprayed with aqueous test solutions prepared from 10′000 ppm DMSO stock solutions. After drying the leaf were infested with N-2 nymphs. The samples were assessed for mortality 5 days after infestation.

Row | SMILES | percent control (mortality, anti-feedant effect or growth inhibition) at 200 ppm [1] [%] | percent effect (mortality or growth inhibition) at 200 ppm [2] [%] | percent effect (mortality or growth inhibition) at 200 ppm [3] [%] | also measured
1 | CCS(=O)(=O)c1cc(C(F)(F)F)cnc1-n1cc(-c2ccc(C(F)(F)F)cc2)cn1 [Compound P1.3, 3-ethylsulfonyl-5-(trifluoromethyl)-2-[4-[4-(trifluoromethyl)phenyl]pyrazol-1-yl]pyridine] | ≥ 80 | ≥ 80 | – | –
2 | CCS(=O)(=O)c1cc(C(F)(F)F)cnc1-n1ncc(-c2cccc(C(F)(F)F)c2)c1C [Compound P1.2, 3-ethylsulfonyl-2-[5-methyl-4-[3-(trifluoromethyl)phenyl]pyrazol-1-yl]-5-(trifluoromethyl)pyridine] | ≥ 80 | – | ≥ 80 | –
3 | CCS(=O)(=O)c1cc(C(F)(F)F)cnc1-n1cc(-c2cccc(C(F)(F)F)c2)cn1 [Compound P1.6] | ≥ 80 | ≥ 80 | ≥ 80 | –
4 | CCS(=O)(=O)c1cc(C(F)(F)F)cnc1-n1cc(-c2ccc(SC(F)(F)F)cc2)cn1 [Compound P1.11] | – | – | – | melting point: 181 to 182 °C
5 | CCS(=O)(=O)c1cc(C(F)(F)F)cnc1-n1cc(-c2ccc(C(F)(F)F)nc2)cn1 [Compound P1.7] | ≥ 80 | ≥ 80 | ≥ 80 | –
6 | CCSc1cccnc1-n1cc(-c2ccc(C(F)(F)F)nc2)cn1 [Compound P1.19, 3-ethylsulfanyl-2-[4-[6-(trifluoromethyl)-3-pyridyl]pyrazol-1-yl]pyridine] | – | – | – | melting point: 121 to 123 °C
7 | CCSc1cc(C(F)(F)F)cnc1-n1ncc(-c2ccc(C(F)(F)F)cc2)c1C [Compound P1.4] | – | – | – | melting point: 113 to 114 °C
8 | CCS(=O)(=O)c1cc(C(F)(F)F)ccc1-n1ncc(-c2cccc(C(F)(F)F)c2)c1C [Compound P1.16] | ≥ 80 | ≥ 80 | ≥ 80 | mortality at 200 ppm [4]: ≥ 80%; mortality at 200 ppm [5]: ≥ 80%; mortality at 200 ppm [6]: ≥ 80%
9 | CCS(=O)(=O)c1cc(C(F)(F)F)cnc1-n1ncc(-c2ccc(C(F)(F)F)cc2)c1C [Compound P1.5] | – | – | – | melting point: 152 to 154 °C
10 | CCS(=O)(=O)c1cc(C(F)(F)F)cnc1-n1cc(-c2cccc(SC(F)(F)F)c2)cn1 [Compound P1.12] | ≥ 80 | – | – | –
11 | CCS(=O)(=O)c1cc(C(F)(F)F)cnc1-n1cc(-c2cc(C(F)(F)F)ccn2)cn1 [Compound P1.8] | ≥ 80 | ≥ 80 | ≥ 80 | –
12 | CCS(=O)(=O)c1cc(C(F)(F)F)ccc1-n1cc(-c2cc(C(F)(F)F)ccn2)cn1 [Compound P1.10, 2-[1-[2-ethylsulfonyl-4-(trifluoromethyl)phenyl]pyrazol-4-yl]-4-(trifluoromethyl)pyridine] | ≥ 80 | – | ≥ 80 | mortality at 200 ppm [4]: ≥ 80%
13 | CCS(=O)(=O)c1cc(C(F)(F)F)ccc1-n1cc(-c2ccc(C(F)(F)F)cc2)cn1 [Compound P1.13] | ≥ 80 | ≥ 80 | ≥ 80 | mortality at 200 ppm [6]: ≥ 80%
14 | CCS(=O)(=O)c1cc(C(F)(F)F)ccc1-n1cc(-c2cccc(C(F)(F)F)c2)cn1 [Compound P1.9] | ≥ 80 | ≥ 80 | ≥ 80 | –
